Values joined by “and” are separate entries in the source; they are usually repeats but may differ in a detail not shown here. Identical values can stand only once.
The compounds below were run against MAP2K2 (human) (UniProt P36507) (assay: radiometric filter-binding kinase assay). Settings: compound 100.0 µM; ATP 5 µM.
Sequence of MAP2K2 (human) (P36507 whole entry, looked up): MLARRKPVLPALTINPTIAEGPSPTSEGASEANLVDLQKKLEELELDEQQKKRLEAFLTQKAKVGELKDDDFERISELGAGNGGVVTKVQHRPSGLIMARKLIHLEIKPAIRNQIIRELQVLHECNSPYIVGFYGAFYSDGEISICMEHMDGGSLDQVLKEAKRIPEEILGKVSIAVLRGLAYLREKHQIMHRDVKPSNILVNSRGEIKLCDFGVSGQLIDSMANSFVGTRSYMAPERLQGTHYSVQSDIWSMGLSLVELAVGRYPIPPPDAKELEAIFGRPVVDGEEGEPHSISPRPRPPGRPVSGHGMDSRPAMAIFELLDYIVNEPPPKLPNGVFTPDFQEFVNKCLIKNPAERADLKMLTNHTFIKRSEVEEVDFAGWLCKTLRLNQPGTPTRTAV

Row | Compound | inhibition
1 | O=C(Nc1cnc2[nH]ccn2c1=O)c1ccccc1 | 0%
2 | CC(C)(C)Nc1c(COCc2ccccc2)nc2[nH]cnn12 | 11%
3 | CC(=O)Nc1nc2cnc(-c3ccccc3)cn2n1 | 6%
4 | CC1CN(c2nc3ccccn3c(=O)c2N)CC(C)O1 (configuration not stated) | 0%
5 | O=C(c1cccc(-c2cc3c(=O)[nH]cnc3s2)c1)N1CCOCC1 | 8%

The compounds below were run against MAPKAPK3 (human) (UniProt Q16644) (assay: radiometric filter-binding kinase assay). Settings: compound 100.0 µM; ATP 20 µM.
Sequence of MAPKAPK3 (human) (Q16644 whole entry, looked up): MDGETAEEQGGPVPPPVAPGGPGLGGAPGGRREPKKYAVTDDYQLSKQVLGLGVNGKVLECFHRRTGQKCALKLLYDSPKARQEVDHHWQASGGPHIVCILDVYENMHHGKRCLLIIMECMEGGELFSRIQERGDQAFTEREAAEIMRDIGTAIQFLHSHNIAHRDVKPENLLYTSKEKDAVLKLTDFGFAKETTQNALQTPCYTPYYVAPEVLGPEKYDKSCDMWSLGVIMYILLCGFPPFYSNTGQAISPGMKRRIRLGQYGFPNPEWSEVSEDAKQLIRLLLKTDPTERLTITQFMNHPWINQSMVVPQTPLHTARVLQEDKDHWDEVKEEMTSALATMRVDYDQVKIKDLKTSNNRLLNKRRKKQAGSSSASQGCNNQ

Row | Compound | inhibition
6 | O=C(Nc1cnc2[nH]ccn2c1=O)c1ccccc1 | 33%
7 | CC(C)(C)Nc1c(COCc2ccccc2)nc2[nH]cnn12 | 38%
8 | CC(=O)Nc1nc2cnc(-c3ccccc3)cn2n1 | 2%
9 | CC1CN(c2nc3ccccn3c(=O)c2N)CC(C)O1 (configuration not stated) | 70%
10 | O=C(c1cccc(-c2cc3c(=O)[nH]cnc3s2)c1)N1CCOCC1 | 61%

What follows are compounds tested against FGFR1 (human) (UniProt P11362) (assay: radiometric filter-binding kinase assay). Settings: compound 100.0 µM; ATP 20 µM.

Row | Compound | inhibition
11 | O=C(Nc1cnc2[nH]ccn2c1=O)c1ccccc1 | 14%
12 | CC(C)(C)Nc1c(COCc2ccccc2)nc2[nH]cnn12 | 40%
13 | CC(=O)Nc1nc2cnc(-c3ccccc3)cn2n1 | 45%
14 | CC1CN(c2nc3ccccn3c(=O)c2N)CC(C)O1 (configuration not stated) | 34%
15 | O=C(c1cccc(-c2cc3c(=O)[nH]cnc3s2)c1)N1CCOCC1 | 57%

The compounds below were run against MAPK12 (human) (UniProt P53778) (assay: radiometric filter-binding kinase assay). Settings: compound 100.0 µM; ATP 5 µM.

Row | Compound | inhibition
16 | O=C(Nc1cnc2[nH]ccn2c1=O)c1ccccc1 | 0%
17 | CC(C)(C)Nc1c(COCc2ccccc2)nc2[nH]cnn12 | 0%
18 | CC(=O)Nc1nc2cnc(-c3ccccc3)cn2n1 | 24%
19 | CC1CN(c2nc3ccccn3c(=O)c2N)CC(C)O1 (configuration not stated) | 1%
20 | O=C(c1cccc(-c2cc3c(=O)[nH]cnc3s2)c1)N1CCOCC1 | 0%

What follows are compounds tested against MKNK1 (human) (UniProt Q9BUB5) (assay: radiometric filter-binding kinase assay). Settings: compound 100.0 µM; ATP 50 µM.

Row | Compound | inhibition
21 | O=C(Nc1cnc2[nH]ccn2c1=O)c1ccccc1 | 0%
22 | CC(C)(C)Nc1c(COCc2ccccc2)nc2[nH]cnn12 | 0%
23 | CC(=O)Nc1nc2cnc(-c3ccccc3)cn2n1 | 53%
24 | CC1CN(c2nc3ccccn3c(=O)c2N)CC(C)O1 (configuration not stated) | 0%
25 | O=C(c1cccc(-c2cc3c(=O)[nH]cnc3s2)c1)N1CCOCC1 | 0%

The compounds below were run against EPHA2 (human) (UniProt P29317) (assay: radiometric filter-binding kinase assay). Settings: compound 100.0 µM; ATP 50 µM.
Sequence of EPHA2 (human) (P29317 whole entry, looked up): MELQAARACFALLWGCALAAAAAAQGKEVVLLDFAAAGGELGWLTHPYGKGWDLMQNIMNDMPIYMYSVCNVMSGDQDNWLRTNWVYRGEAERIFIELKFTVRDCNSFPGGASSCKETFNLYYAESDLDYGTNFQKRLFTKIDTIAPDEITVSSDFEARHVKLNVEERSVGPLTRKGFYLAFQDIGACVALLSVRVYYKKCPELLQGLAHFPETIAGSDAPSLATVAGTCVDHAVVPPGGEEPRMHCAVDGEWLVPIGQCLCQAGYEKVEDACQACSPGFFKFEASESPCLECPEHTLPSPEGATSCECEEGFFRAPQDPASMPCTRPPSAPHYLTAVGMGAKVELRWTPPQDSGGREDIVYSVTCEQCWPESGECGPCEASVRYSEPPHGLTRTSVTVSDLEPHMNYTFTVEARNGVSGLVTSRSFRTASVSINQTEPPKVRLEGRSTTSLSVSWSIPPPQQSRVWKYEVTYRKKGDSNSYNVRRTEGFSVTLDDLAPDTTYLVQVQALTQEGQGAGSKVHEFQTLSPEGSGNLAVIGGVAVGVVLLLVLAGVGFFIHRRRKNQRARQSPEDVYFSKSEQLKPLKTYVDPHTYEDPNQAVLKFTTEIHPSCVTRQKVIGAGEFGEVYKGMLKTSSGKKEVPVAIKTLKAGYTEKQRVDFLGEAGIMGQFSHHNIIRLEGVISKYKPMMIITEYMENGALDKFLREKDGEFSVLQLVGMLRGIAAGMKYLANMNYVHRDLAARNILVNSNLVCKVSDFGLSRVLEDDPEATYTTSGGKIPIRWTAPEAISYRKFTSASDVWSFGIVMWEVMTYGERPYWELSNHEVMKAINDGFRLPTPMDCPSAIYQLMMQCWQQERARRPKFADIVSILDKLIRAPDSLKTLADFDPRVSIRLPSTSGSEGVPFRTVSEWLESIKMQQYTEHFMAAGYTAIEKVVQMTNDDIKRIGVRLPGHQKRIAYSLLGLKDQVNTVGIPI

Row | Compound | inhibition
26 | O=C(Nc1cnc2[nH]ccn2c1=O)c1ccccc1 | 31%
27 | CC(C)(C)Nc1c(COCc2ccccc2)nc2[nH]cnn12 | 0%
28 | CC(=O)Nc1nc2cnc(-c3ccccc3)cn2n1 | 0%
29 | CC1CN(c2nc3ccccn3c(=O)c2N)CC(C)O1 (configuration not stated) | 0%
30 | O=C(c1cccc(-c2cc3c(=O)[nH]cnc3s2)c1)N1CCOCC1 | 37%

Each compound was assayed against STK16 (human) (UniProt O75716) (assay: radiometric filter-binding kinase assay). Settings: compound 100.0 µM; ATP 50 µM.
Sequence of STK16 (human) (O75716 whole entry, looked up): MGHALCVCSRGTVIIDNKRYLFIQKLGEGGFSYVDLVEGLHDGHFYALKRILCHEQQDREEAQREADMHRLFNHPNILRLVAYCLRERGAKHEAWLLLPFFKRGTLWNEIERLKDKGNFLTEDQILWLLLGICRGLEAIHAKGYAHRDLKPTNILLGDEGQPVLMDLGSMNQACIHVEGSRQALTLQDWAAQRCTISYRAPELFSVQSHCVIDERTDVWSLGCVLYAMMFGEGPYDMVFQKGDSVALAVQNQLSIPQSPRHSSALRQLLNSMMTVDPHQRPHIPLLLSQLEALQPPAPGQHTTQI

Row | Compound | inhibition
31 | O=C(Nc1cnc2[nH]ccn2c1=O)c1ccccc1 | 21%
32 | CC(C)(C)Nc1c(COCc2ccccc2)nc2[nH]cnn12 | 0%
33 | CC(=O)Nc1nc2cnc(-c3ccccc3)cn2n1 | 0%
34 | CC1CN(c2nc3ccccn3c(=O)c2N)CC(C)O1 (configuration not stated) | 6%
35 | O=C(c1cccc(-c2cc3c(=O)[nH]cnc3s2)c1)N1CCOCC1 | 4%

Each compound was assayed on RPS6KB1 (human), P23443 [T412E] (assay: radiometric filter-binding kinase assay). Settings: compound 100.0 µM; ATP 20 µM.
Sequence of RPS6KB1 (human), P23443 [T412E] (P23443 whole entry T412E, looked up): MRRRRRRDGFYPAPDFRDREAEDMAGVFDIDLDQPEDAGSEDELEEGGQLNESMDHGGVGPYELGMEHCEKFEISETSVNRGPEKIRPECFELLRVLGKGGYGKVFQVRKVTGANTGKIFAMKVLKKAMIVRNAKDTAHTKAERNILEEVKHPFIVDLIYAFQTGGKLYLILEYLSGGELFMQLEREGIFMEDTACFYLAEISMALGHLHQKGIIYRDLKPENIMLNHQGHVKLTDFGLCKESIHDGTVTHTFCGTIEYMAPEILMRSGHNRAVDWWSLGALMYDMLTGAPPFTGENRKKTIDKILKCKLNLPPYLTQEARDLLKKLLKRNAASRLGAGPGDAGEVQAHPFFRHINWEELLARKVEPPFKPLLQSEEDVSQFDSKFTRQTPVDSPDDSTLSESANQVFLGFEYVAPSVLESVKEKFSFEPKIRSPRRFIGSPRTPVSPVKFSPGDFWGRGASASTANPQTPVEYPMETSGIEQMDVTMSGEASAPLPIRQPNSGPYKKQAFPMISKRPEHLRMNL

Row | Compound | inhibition
36 | O=C(Nc1cnc2[nH]ccn2c1=O)c1ccccc1 | 4%
37 | CC(C)(C)Nc1c(COCc2ccccc2)nc2[nH]cnn12 | 0%
38 | CC(=O)Nc1nc2cnc(-c3ccccc3)cn2n1 | 5%
39 | CC1CN(c2nc3ccccn3c(=O)c2N)CC(C)O1 (configuration not stated) | 0%
40 | O=C(c1cccc(-c2cc3c(=O)[nH]cnc3s2)c1)N1CCOCC1 | 34%

The compounds below were run against FLT1 (human) (UniProt P17948) (assay: radiometric filter-binding kinase assay). Settings: compound 100.0 µM; ATP 20 µM.
Sequence of FLT1 (human) (P17948 whole entry, looked up): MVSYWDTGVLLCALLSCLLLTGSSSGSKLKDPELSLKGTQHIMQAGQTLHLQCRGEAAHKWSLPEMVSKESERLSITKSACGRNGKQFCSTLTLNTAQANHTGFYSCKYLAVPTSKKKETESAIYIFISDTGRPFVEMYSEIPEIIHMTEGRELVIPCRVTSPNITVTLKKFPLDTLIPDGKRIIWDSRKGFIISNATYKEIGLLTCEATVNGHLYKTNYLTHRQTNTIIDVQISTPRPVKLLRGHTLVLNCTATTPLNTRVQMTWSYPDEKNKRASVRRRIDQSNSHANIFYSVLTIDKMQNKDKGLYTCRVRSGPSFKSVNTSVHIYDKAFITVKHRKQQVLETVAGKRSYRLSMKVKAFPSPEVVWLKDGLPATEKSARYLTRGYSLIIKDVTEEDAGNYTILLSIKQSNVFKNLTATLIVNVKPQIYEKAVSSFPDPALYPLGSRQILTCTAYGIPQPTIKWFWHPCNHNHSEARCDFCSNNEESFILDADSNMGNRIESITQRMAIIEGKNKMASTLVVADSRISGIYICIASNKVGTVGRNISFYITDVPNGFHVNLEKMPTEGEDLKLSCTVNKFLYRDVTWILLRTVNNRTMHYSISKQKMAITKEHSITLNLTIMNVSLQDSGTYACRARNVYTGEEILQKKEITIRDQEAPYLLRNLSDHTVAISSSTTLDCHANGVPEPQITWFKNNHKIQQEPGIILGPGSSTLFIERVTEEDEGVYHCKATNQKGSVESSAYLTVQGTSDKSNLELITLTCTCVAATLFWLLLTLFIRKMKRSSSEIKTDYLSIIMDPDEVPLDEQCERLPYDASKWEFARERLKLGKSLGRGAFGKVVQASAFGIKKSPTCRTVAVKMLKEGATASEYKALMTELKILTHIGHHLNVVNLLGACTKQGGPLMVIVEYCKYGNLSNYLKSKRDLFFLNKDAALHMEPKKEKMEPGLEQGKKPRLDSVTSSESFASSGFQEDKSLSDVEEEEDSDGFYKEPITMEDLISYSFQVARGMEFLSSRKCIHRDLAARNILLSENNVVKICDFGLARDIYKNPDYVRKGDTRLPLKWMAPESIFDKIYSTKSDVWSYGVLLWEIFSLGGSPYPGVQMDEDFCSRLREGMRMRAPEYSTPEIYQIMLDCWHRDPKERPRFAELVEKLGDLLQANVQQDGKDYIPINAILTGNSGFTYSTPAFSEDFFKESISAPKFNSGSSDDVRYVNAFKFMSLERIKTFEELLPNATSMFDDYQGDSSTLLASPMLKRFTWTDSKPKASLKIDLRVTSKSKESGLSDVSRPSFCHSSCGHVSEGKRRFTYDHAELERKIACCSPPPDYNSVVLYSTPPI

Row | Compound | inhibition
41 | O=C(Nc1cnc2[nH]ccn2c1=O)c1ccccc1 | 31%
42 | CC(C)(C)Nc1c(COCc2ccccc2)nc2[nH]cnn12 | 0%
43 | CC(=O)Nc1nc2cnc(-c3ccccc3)cn2n1 | 69%
44 | CC1CN(c2nc3ccccn3c(=O)c2N)CC(C)O1 (configuration not stated) | 54%
45 | O=C(c1cccc(-c2cc3c(=O)[nH]cnc3s2)c1)N1CCOCC1 | 74%

These compounds were tested against CLK2 (human) (UniProt P49760) (assay: radiometric filter-binding kinase assay). Settings: compound 100.0 µM; ATP 5 µM.

Row | Compound | inhibition
46 | O=C(Nc1cnc2[nH]ccn2c1=O)c1ccccc1 | 0%
47 | CC(C)(C)Nc1c(COCc2ccccc2)nc2[nH]cnn12 | 43%
48 | CC(=O)Nc1nc2cnc(-c3ccccc3)cn2n1 | 79%
49 | CC1CN(c2nc3ccccn3c(=O)c2N)CC(C)O1 (configuration not stated) | 57%
50 | O=C(c1cccc(-c2cc3c(=O)[nH]cnc3s2)c1)N1CCOCC1 | 46%

The compounds below were run against MARK2 (human) (UniProt Q7KZI7) (assay: radiometric filter-binding kinase assay). Settings: compound 100.0 µM; ATP 20 µM.

Row | Compound | inhibition
51 | O=C(Nc1cnc2[nH]ccn2c1=O)c1ccccc1 | 0%
52 | CC(C)(C)Nc1c(COCc2ccccc2)nc2[nH]cnn12 | 13%
53 | CC(=O)Nc1nc2cnc(-c3ccccc3)cn2n1 | 18%
54 | CC1CN(c2nc3ccccn3c(=O)c2N)CC(C)O1 (configuration not stated) | 13%
55 | O=C(c1cccc(-c2cc3c(=O)[nH]cnc3s2)c1)N1CCOCC1 | 0%

The compounds below were run against NUAK1 (human) (UniProt O60285) (assay: radiometric filter-binding kinase assay). Settings: compound 100.0 µM; ATP 20 µM.
Sequence of NUAK1 (human) (O60285 whole entry, looked up): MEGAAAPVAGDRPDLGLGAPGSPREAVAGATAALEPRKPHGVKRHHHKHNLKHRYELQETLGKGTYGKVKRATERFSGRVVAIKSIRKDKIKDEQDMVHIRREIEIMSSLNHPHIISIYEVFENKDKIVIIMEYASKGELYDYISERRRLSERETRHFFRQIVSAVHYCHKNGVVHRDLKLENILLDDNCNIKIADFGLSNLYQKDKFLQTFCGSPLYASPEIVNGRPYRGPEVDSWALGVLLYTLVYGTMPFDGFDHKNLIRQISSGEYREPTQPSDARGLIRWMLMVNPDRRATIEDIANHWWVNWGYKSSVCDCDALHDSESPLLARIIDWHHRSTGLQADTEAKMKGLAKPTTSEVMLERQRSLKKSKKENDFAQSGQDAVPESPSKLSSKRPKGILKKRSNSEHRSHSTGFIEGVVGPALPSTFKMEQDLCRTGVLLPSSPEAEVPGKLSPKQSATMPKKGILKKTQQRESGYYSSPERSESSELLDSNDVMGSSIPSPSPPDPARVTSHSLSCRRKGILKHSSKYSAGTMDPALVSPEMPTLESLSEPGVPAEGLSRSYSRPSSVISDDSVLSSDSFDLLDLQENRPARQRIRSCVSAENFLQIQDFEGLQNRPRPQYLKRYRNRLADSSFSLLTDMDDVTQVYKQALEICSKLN

Row | Compound | inhibition
56 | O=C(Nc1cnc2[nH]ccn2c1=O)c1ccccc1 | 0%
57 | CC(C)(C)Nc1c(COCc2ccccc2)nc2[nH]cnn12 | 20%
58 | CC(=O)Nc1nc2cnc(-c3ccccc3)cn2n1 | 33%
59 | CC1CN(c2nc3ccccn3c(=O)c2N)CC(C)O1 (configuration not stated) | 3%
60 | O=C(c1cccc(-c2cc3c(=O)[nH]cnc3s2)c1)N1CCOCC1 | 0%

The compounds below were run against MAPK3 (human) (UniProt P27361) (assay: radiometric filter-binding kinase assay). Settings: compound 100.0 µM; ATP 5 µM.
Sequence of MAPK3 (human) (P27361 whole entry, looked up): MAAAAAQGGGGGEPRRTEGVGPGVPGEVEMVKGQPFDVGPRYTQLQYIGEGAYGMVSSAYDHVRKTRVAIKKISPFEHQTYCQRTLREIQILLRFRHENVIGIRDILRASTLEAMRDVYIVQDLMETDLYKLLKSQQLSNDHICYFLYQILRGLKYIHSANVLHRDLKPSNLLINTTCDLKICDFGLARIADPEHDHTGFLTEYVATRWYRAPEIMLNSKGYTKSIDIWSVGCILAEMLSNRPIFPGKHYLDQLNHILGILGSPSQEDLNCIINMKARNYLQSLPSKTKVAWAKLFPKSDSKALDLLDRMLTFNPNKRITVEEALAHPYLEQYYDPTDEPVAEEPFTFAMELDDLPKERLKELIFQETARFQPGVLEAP

Row | Compound | inhibition
61 | O=C(Nc1cnc2[nH]ccn2c1=O)c1ccccc1 | 10%
62 | CC(C)(C)Nc1c(COCc2ccccc2)nc2[nH]cnn12 | 1%
63 | CC(=O)Nc1nc2cnc(-c3ccccc3)cn2n1 | 13%
64 | CC1CN(c2nc3ccccn3c(=O)c2N)CC(C)O1 (configuration not stated) | 0%
65 | O=C(c1cccc(-c2cc3c(=O)[nH]cnc3s2)c1)N1CCOCC1 | 19%

These compounds were tested against MAPKAPK5 (human) (UniProt Q8IW41) (assay: radiometric filter-binding kinase assay). Settings: compound 100.0 µM; ATP 20 µM.

Row | Compound | inhibition
66 | O=C(Nc1cnc2[nH]ccn2c1=O)c1ccccc1 | 17%
67 | CC(C)(C)Nc1c(COCc2ccccc2)nc2[nH]cnn12 | 44%
68 | CC(=O)Nc1nc2cnc(-c3ccccc3)cn2n1 | 6%
69 | CC1CN(c2nc3ccccn3c(=O)c2N)CC(C)O1 (configuration not stated) | 75%
70 | O=C(c1cccc(-c2cc3c(=O)[nH]cnc3s2)c1)N1CCOCC1 | 0%

Each compound was assayed against EPHA4 (human) (UniProt P54764) (assay: radiometric filter-binding kinase assay). Settings: compound 100.0 µM; ATP 50 µM.

Row | Compound | inhibition
71 | O=C(Nc1cnc2[nH]ccn2c1=O)c1ccccc1 | 16%
72 | CC(C)(C)Nc1c(COCc2ccccc2)nc2[nH]cnn12 | 4%
73 | CC(=O)Nc1nc2cnc(-c3ccccc3)cn2n1 | 19%
74 | CC1CN(c2nc3ccccn3c(=O)c2N)CC(C)O1 (configuration not stated) | 16%
75 | O=C(c1cccc(-c2cc3c(=O)[nH]cnc3s2)c1)N1CCOCC1 | 0%

The compounds below were run against PRKACA (human) (UniProt P17612) (assay: radiometric filter-binding kinase assay). Settings: compound 100.0 µM; ATP 20 µM.

Row | Compound | inhibition
76 | O=C(Nc1cnc2[nH]ccn2c1=O)c1ccccc1 | 0% and 2%
77 | CC(C)(C)Nc1c(COCc2ccccc2)nc2[nH]cnn12 | 0% and 21%
78 | CC(=O)Nc1nc2cnc(-c3ccccc3)cn2n1 | 0%
79 | CC1CN(c2nc3ccccn3c(=O)c2N)CC(C)O1 (configuration not stated) | 0% and 15%
80 | O=C(c1cccc(-c2cc3c(=O)[nH]cnc3s2)c1)N1CCOCC1 | 17% and 42%

These compounds were tested against MAP3K7 TAB1 (human) (UniProt Q15750+O43318) (assay: radiometric filter-binding kinase assay). Settings: compound 100.0 µM; ATP 5 µM.

Row | Compound | inhibition
81 | O=C(Nc1cnc2[nH]ccn2c1=O)c1ccccc1 | 26%
82 | CC(C)(C)Nc1c(COCc2ccccc2)nc2[nH]cnn12 | 31%
83 | CC(=O)Nc1nc2cnc(-c3ccccc3)cn2n1 | 30%
84 | CC1CN(c2nc3ccccn3c(=O)c2N)CC(C)O1 (configuration not stated) | 0%
85 | O=C(c1cccc(-c2cc3c(=O)[nH]cnc3s2)c1)N1CCOCC1 | 78%

What follows are compounds tested against CHEK1 (human) (UniProt O14757) (assay: radiometric filter-binding kinase assay). Settings: compound 100.0 µM; ATP 20 µM.

Row | Compound | inhibition
86 | O=C(Nc1cnc2[nH]ccn2c1=O)c1ccccc1 | 2%
87 | CC(C)(C)Nc1c(COCc2ccccc2)nc2[nH]cnn12 | 0%
88 | CC(=O)Nc1nc2cnc(-c3ccccc3)cn2n1 | 18%
89 | CC1CN(c2nc3ccccn3c(=O)c2N)CC(C)O1 (configuration not stated) | 0%
90 | O=C(c1cccc(-c2cc3c(=O)[nH]cnc3s2)c1)N1CCOCC1 | 0%

Each compound was assayed against MST4 (human) (UniProt Q9P289) (assay: radiometric filter-binding kinase assay). Settings: compound 100.0 µM; ATP 20 µM.

Row | Compound | inhibition
91 | O=C(Nc1cnc2[nH]ccn2c1=O)c1ccccc1 | 7%
92 | CC(C)(C)Nc1c(COCc2ccccc2)nc2[nH]cnn12 | 0%
93 | CC(=O)Nc1nc2cnc(-c3ccccc3)cn2n1 | 16%
94 | CC1CN(c2nc3ccccn3c(=O)c2N)CC(C)O1 (configuration not stated) | 2%
95 | O=C(c1cccc(-c2cc3c(=O)[nH]cnc3s2)c1)N1CCOCC1 | 12%

These compounds were tested against MARK3 (human) (UniProt P27448) (assay: radiometric filter-binding kinase assay). Settings: compound 100.0 µM; ATP 5 µM.

Row | Compound | inhibition
96 | O=C(Nc1cnc2[nH]ccn2c1=O)c1ccccc1 | 12%
97 | CC(C)(C)Nc1c(COCc2ccccc2)nc2[nH]cnn12 | 13%

— the kinase profiling compilation of Christmann-Franck et al. (2016)
